Experimental data: patent publication US20030206892A1, “Methods of modulating activity of DXR” (priority 2000, published 2003)
In brackets after ≈: the same amount, converted by molar mass.

Assays:
Assay type in all cases: cell-based
E. coli DH5α = test: E. coli DXR MIC experiment, parent strain; settings: Escherichia coli, LB, overnight at 37° C., read-out: E. coli DXR MICs, E. coli DH5α
Description: (§1) The MIC protocol used techniques well known to those skilled in the art. All strains were grown overnight in LB with appropriate selection. The compounds are mixed or put in contact with DMSO. Fifty μl of LB was placed in each well of the microtiter plate, except in Column 1. To obtain a top concentration of 256 μl/mil of compound after the inoculum is added: 10 μl of a 5.12 mg/ml stock is mixed with 90 μl of LB. This mixture was placed in the first well of its assigned row of a 96-well plate. The compound was then serially diluted 1:2 by taking 50 μl from the first well in the row and mixing it with the second well of the same row, Column 2. Then, 50 μl from that well was mixed with the third well in the row, Column 3 and so on until Column 11. Fifty μl of the serial dilution from Column 11 was discarded. The final well in the row, column 12, was the growth control. No compound was placed in column 12. The overnight culture was diluted 1:50 into LB. Fifty μl of this culture dilution was added to every well of the microtiter plate. This dilutes the inoculum and drug 1:2. The final inoculum was approximately 1×10^5 cells/ml. The 96-well pates are then incubated overnight at 37° C.

E. coli DH5α + (pET28) = test: E. coli DXR MIC experiment, empty vector strain; settings: Escherichia coli, LB, overnight at 37° C., read-out: E. coli DXR MICs, E. coli DH5α + (pET28)
Description: as §1

[1] = tested on: E. coli DH5α + (pET28::dxr), H. influenzae dxr; test: H. influenzae DXR MIC experiment, strain expressing H. influenzae DXR
Description: as §1, with “Fifty μl of LB was placed in each well of the microtiter plate, except in Column 1. To obtain a top concentration of 256 μl/mil of compound after the inoculum is added: 10 μl of a 5.12 mg/ml stock is mixed with 90 μl of LB.” left out, “The overnight culture was diluted 1:50 into LB.” left out

[2] = tested on: E. coli DH5α + (pET28::dxr), E. coli dxr; test: E. coli DXR MIC experiment, strain overexpressing E. coli DXR
Description: as §1

## CC1(C)S[C@@H]2[C@H](NC(=O)[C@H](N)c3ccc(O)cc3)C(=O)N2[C@H]1C(=O)O [Amoxicillin]
E. coli DH5α
  MIC: 16 µg/mL (≈ 43.8 µM)

## O=CN(O)CCCP(=O)(O)O [Fosmidomycin]
E. coli DH5α
  MIC: 16 µg/mL (≈ 87.4 µM)
E. coli DH5α + (pET28)
  MIC: 16 µg/mL
[1]; E. coli cells (DH5α) expressing H. influenzae DXR
  MIC increase for cells expressing H. influenzae DXR: 16 fold
[1]; Escherichia coli, read-out: H. influenzae DXR MICs, E. coli DH5α + (pET28::dxr)
  MIC: 256 µg/mL
[2]; E. coli cells (DH5α) overexpressing E. coli DXR
  MIC increase for cells overexpressing E. coli DXR: 8 fold
[2]; Escherichia coli, read-out: E. coli DXR MICs, E. coli DH5α + (pET28::dxr)
  MIC: 128 µg/mL
